Data reported in publication PMC8224687, “Lipophilicity, Pharmacokinetic Properties, and Molecular Docking Study on SARS-CoV-2 Target for Betulin Triazole Derivatives with Attached 1,4-Quinone” (Pharmaceutics, 2021).
Like-named read-outs stand apart in the source and are kept apart here.

Columns and labels:
[1] = pH 7.4
[2] = Experimental lipophilicity by RP-TLC (RM0, logPTLC, hydrophobic index); conditions: for RM0 (chromatographic parameter of lipophilicity): RP-TLC, acetone / TRIS 0.2 M pH 7.4, extrapolated to zero acetone; for chromatographic logP: logPTLC (experimental lipophilicity); for chromatographic logP / logPTLC (experimental lipophilicity): from RM0 by calibration curve Equation (4); for hydrophobic index (φ0): φ0 = −RM0/b
[3] = set-up: method as in PMID 9879505, doi:10.1021/ja00193a003; conditions: literature values of standard substances ref 52, 53; cited from earlier work

Compound	RM0 (chromatographic parameter of lipophilicity) [1]	RM0 (chromatographic parameter of lipophilicity) [2]	chromatographic logP [2]	hydrophobic index (φ0) [2]	logPTLC (experimental lipophilicity) [2]	logPlit [3]	chromatographic logP (physchem)
CC(=O)c1ccc(Br)cc1 [4-Bromoacetophenone, 4-bromoacetophenone]	1.89	–	–	–	–	–	–
CC(=O)Nc1ccccc1 [Acetanilide, acetanilide, reference compound]	–	0.55	1.19	–	–	–	–
c1ccc2cc3ccccc3cc2c1 [Anthracene, anthracene, reference compound]	–	3.48	4.52	–	–	–	–
C=C(C)[C@@H]1CC[C@]2(COC(=O)c3cn(CCCOC4=C(Cl)C(=O)c5cccnc5C4=O)nn3)CC[C@]3(C)C(CCC4[C@@]5(C)CC[C@H](O)C(C)(C)C5CC[C@]43C)C12 (stereo partly shown) [Compound 1]	–	3.51	–	82.40	–	–	–
C=C(C)[C@@H]1CC[C@]2(COC(=O)c3cn(CCCOC4=C(Cl)C(=O)c5cccnc5C4=O)nn3)CC[C@]3(C)C(CCC4[C@@]5(C)CCC(=O)C(C)(C)C5CC[C@]43C)C12 (stereo partly shown) [Compound 2]	–	3.64	4.71	83.14	–	–	–
C=C(C)[C@@H]1CC[C@]2(COC(=O)c3cn(CCCOC4=C(Cl)C(=O)c5cccnc5C4=O)nn3)CC[C@]3(C)C(CCC4[C@@]5(C)CC[C@H](OC(C)=O)C(C)(C)C5CC[C@]43C)C12 (stereo partly shown) [Compound 3]	–	3.97	–	84.76	5.08	–	–
C=C(C)[C@@H]1CC[C@]2(COC(=O)c3cn(CCCOC4=C(Cl)C(=O)c5cccnc5C4=O)nn3)CC[C@]3(C)C(CCC4[C@@]5(C)CC[C@H](OC(=O)CC)C(C)(C)C5CC[C@]43C)C12 (stereo partly shown) [Compound 4]	–	4.08	5.21	87.00	–	–	–
C=C(C)[C@@H]1CC[C@]2(COC(=O)c3cn(CCCOC4=C(Cl)C(=O)c5ccncc5C4=O)nn3)CC[C@]3(C)C(CCC4[C@@]5(C)CC[C@H](O)C(C)(C)C5CC[C@]43C)C12 (stereo partly shown) [Compound 5]	–	3.56	–	79.81	–	–	–
C=C(C)[C@@H]1CC[C@]2(COC(=O)c3cn(CCCOC4=C(Cl)C(=O)c5ccncc5C4=O)nn3)CC[C@]3(C)C(CCC4[C@@]5(C)CCC(=O)C(C)(C)C5CC[C@]43C)C12 (stereo partly shown) [Compound 6]	–	3.59	–	82.83	–	–	–
C=C(C)[C@@H]1CC[C@]2(COC(=O)c3cn(CCCOC4=C(Cl)C(=O)c5ccncc5C4=O)nn3)CC[C@]3(C)C(CCC4[C@@]5(C)CC[C@H](OC(C)=O)C(C)(C)C5CC[C@]43C)C12 (stereo partly shown) [Compound 7]	–	4.07	5.2	83.48	–	–	–
C=C(C)[C@@H]1CC[C@]2(COC(=O)c3cn(CCCOC4=C(Cl)C(=O)c5ccncc5C4=O)nn3)CC[C@]3(C)C(CCC4[C@@]5(C)CC[C@H](OC(=O)CC)C(C)(C)C5CC[C@]43C)C12 (stereo partly shown) [Compound 8]	–	4.24	–	88.21	5.39	–	–
C=C(C)[C@@H]1CC[C@]2(COC(=O)c3cn(CCCOC4=C(Cl)C(=O)c5ccc(C)nc5C4=O)nn3)CC[C@]3(C)C(CCC4[C@@]5(C)CC[C@H](O)C(C)(C)C5CC[C@]43C)C12 (stereo partly shown) [Compound 9]	–	3.65	4.72	82.43	–	–	–
C=C(C)[C@@H]1CC[C@]2(COC(=O)c3cn(CCCOC4=C(Cl)C(=O)c5ccc(C)nc5C4=O)nn3)CC[C@]3(C)C(CCC4[C@@]5(C)CCC(=O)C(C)(C)C5CC[C@]43C)C12 (stereo partly shown) [Compound 10]	–	3.77	–	83.85	–	–	–
C=C(C)[C@@H]1CC[C@]2(COC(=O)c3cn(CCCOC4=C(Cl)C(=O)c5ccc(C)nc5C4=O)nn3)CC[C@]3(C)C(CCC4[C@@]5(C)CC[C@H](OC(C)=O)C(C)(C)C5CC[C@]43C)C12 (stereo partly shown) [Compound 11]	–	4.12	–	85.94	5.26	–	–
C=C(C)[C@@H]1CC[C@]2(COC(=O)c3cn(CCCOC4=C(Cl)C(=O)c5ccc(C)nc5C4=O)nn3)CC[C@]3(C)C(CCC4[C@@]5(C)CC[C@H](OC(=O)CC)C(C)(C)C5CC[C@]43C)C12 (stereo partly shown) [Compound 12]	–	4.39	–	88.32	5.56	–	–
C=C(C)[C@@H]1CC[C@]2(COC(=O)c3cn(CCCOC4=C(Cl)C(=O)c5ccccc5C4=O)nn3)CC[C@]3(C)C(CCC4[C@@]5(C)CC[C@H](O)C(C)(C)C5CC[C@]43C)C12 (stereo partly shown) [Compound 13]	–	3.78	–	87.13	4.87	–	–
C=C(C)[C@@H]1CC[C@]2(COC(=O)c3cn(CCCOC4=C(Cl)C(=O)c5ccccc5C4=O)nn3)CC[C@]3(C)C(CCC4[C@@]5(C)CCC(=O)C(C)(C)C5CC[C@]43C)C12 (stereo partly shown) [Compound 14]	–	3.84	–	87.76	4.93	–	–
C=C(C)[C@@H]1CC[C@]2(COC(=O)c3cn(CCCOC4=C(Cl)C(=O)c5ccccc5C4=O)nn3)CC[C@]3(C)C(CCC4[C@@]5(C)CC[C@H](OC(C)=O)C(C)(C)C5CC[C@]43C)C12 (stereo partly shown) [Compound 15]	–	4.21	–	85.11	5.35	–	–
C=C(C)[C@@H]1CC[C@]2(COC(=O)c3cn(CCCOC4=C(Cl)C(=O)c5ccccc5C4=O)nn3)CC[C@]3(C)C(CCC4[C@@]5(C)CC[C@H](OC(=O)CC)C(C)(C)C5CC[C@]43C)C12 (stereo partly shown) [Compound 16]	–	4.58	5.77	86.18	–	–	–
C=C(C)[C@@H]1CC[C@]2(COC(=O)c3cn(CCCO)nn3)CC[C@]3(C)C(CCC4[C@@]5(C)CC[C@H](O)C(C)(C)C5CC[C@]43C)C12 (stereo partly shown) [Compound 17]	–	4.40	5.57	82.62	–	–	–
C=C(C)[C@@H]1CC[C@]2(COC(=O)c3cn(CCCO)nn3)CC[C@]3(C)C(CCC4[C@@]5(C)CCC(=O)C(C)(C)C5CC[C@]43C)C12 (stereo partly shown) [Compound 18]	–	4.54	5.73	83.67	–	–	–
C=C(C)[C@@H]1CC[C@]2(COC(=O)c3cn(CCCO)nn3)CC[C@]3(C)C(CCC4[C@@]5(C)CC[C@H](OC(C)=O)C(C)(C)C5CC[C@]43C)C12 (stereo partly shown) [Compound 19]	–	5.07	6.33	86.06	–	–	–
C=C(C)[C@@H]1CC[C@]2(COC(=O)c3cn(CCCO)nn3)CC[C@]3(C)C(CCC4[C@@]5(C)CC[C@H](OC(=O)CC)C(C)(C)C5CC[C@]43C)C12 (stereo partly shown) [Compound 20]	–	5.26	6.55	87.13	–	–	–
Clc1ccc(C(c2ccc(Cl)cc2)C(Cl)(Cl)Cl)cc1 [DDT, dichlorodiphenyltrichloroethane, reference compound]	–	4.87	–	–	6.17	6.01	–
c1ccc(CCc2ccccc2)cc1 [Dibenzyl, dibenzyl]	3.65	–	–	–	–	–	–
C[C@]12C=CC(=O)C=C1CC[C@@H]1[C@@H]2C(=O)C[C@@]2(C)[C@H]1CC[C@]2(O)C(=O)CO [Prednisone, prednisone, reference compound]	–	0.73	–	–	–	–	1.39
